“And” between values parts separate entries of the source, which are not always exact repeats. Identical values can stand only once. Toxic doses and inconclusive results are not listed. Cut-off read from the data, not from the text of the source: active = T/C of 150% or more; inactive = T/C below 125%.
Test system: L1210 leukemia ip in BDF1 mice, survival T/C
Assay: NCI In Vivo Anticancer Drug Screen. Data for tumor model L1210 Leukemia (intraperitoneal) in B6D2F1 (BDF1) mice
Details: endpoint: mean survival time, higher = longer survival
Summary of the method: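 Ratio derived from survival: compound-dosed mice over vehicle-dosed mice, all bearing a transplantable tumor.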

[1] = dose: 25.0 mg/kg/injection, schedule: Q01DX009 (ip), vehicle: Klucel (hydroxypropylcellulose) (HPC)
[2] = dose: 50.0 mg/kg/injection, schedule: Q01DX009 (ip), vehicle: Klucel (hydroxypropylcellulose) (HPC)
[3] = dose: 100.0 mg/kg/injection, schedule: Q01DX009 (ip), vehicle: Klucel (hydroxypropylcellulose) (HPC)
[4] = dose: 100.0 mg/kg/injection, schedule: Q04DX003 (ip), vehicle: Klucel (hydroxypropylcellulose) (HPC)
[5] = dose: 200.0 mg/kg/injection, schedule: Q01DX009 (ip), vehicle: Klucel (hydroxypropylcellulose) (HPC)
[6] = dose: 200.0 mg/kg/injection, schedule: Q04DX003 (ip), vehicle: Klucel (hydroxypropylcellulose) (HPC)
[7] = dose: 400.0 mg/kg/injection, schedule: Q04DX003 (ip), vehicle: Klucel (hydroxypropylcellulose) (HPC)
[8] = dose: 25.0 mg/kg/injection, schedule: Q01DX009 (ip), vehicle: saline
[9] = dose: 50.0 mg/kg/injection, schedule: Q01DX009 (ip), vehicle: saline
[10] = dose: 100.0 mg/kg/injection, schedule: Q01DX009 (ip), vehicle: saline
[11] = dose: 100.0 mg/kg/injection, schedule: Q04DX003 (ip), vehicle: saline
[12] = dose: 200.0 mg/kg/injection, schedule: Q04DX003 (ip), vehicle: saline
[13] = dose: 400.0 mg/kg/injection, schedule: Q04DX003 (ip), vehicle: saline
[14] = dose: 50.0 mg/kg/injection, schedule: Q01DX009 (ip), vehicle: saline with Tween-80
[15] = dose: 100.0 mg/kg/injection, schedule: Q01DX001 (ip), vehicle: carboxymethylcellulose (CMC)
[16] = dose: 200.0 mg/kg/injection, schedule: Q01DX001 (ip), vehicle: carboxymethylcellulose (CMC)
[17] = dose: 400.0 mg/kg/injection, schedule: Q01DX001 (ip), vehicle: carboxymethylcellulose (CMC)
[18] = dose: 100.0 mg/kg/injection, schedule: Q04DX002 (ip), vehicle: Klucel (hydroxypropylcellulose) (HPC)
[19] = dose: 200.0 mg/kg/injection, schedule: Q04DX002 (ip), vehicle: Klucel (hydroxypropylcellulose) (HPC)
[20] = dose: 400.0 mg/kg/injection, schedule: Q04DX002 (ip), vehicle: Klucel (hydroxypropylcellulose) (HPC)
[21] = dose: 100.0 mg/kg/injection, schedule: Q01DX009 (ip), vehicle: saline with Tween-80
[22] = dose: 200.0 mg/kg/injection, schedule: Q01DX009 (ip), vehicle: saline with Tween-80
[23] = dose: 400.0 mg/kg/injection, schedule: Q01DX009 (ip), vehicle: Klucel (hydroxypropylcellulose) (HPC)

Measured: T/C

ON=C1CSCSC1
inactive: dose: 12.5 mg/kg/injection, schedule: Q04DX002 (ip), vehicle: saline 91 % of control | dose: 25.0 mg/kg/injection, schedule: Q04DX002 (ip), vehicle: saline 94 % of control | dose: 50.0 mg/kg/injection, schedule: Q04DX002 (ip), vehicle: saline 88 % of control

NCCc1cc2c3c(c1)CCCN3CCC2
inactive: dose: 0.78 mg/kg/injection, schedule: Q01DX009 (ip), vehicle: saline 95 % of control | dose: 1.56 mg/kg/injection, schedule: Q01DX009 (ip), vehicle: saline 102 % of control | dose: 3.12 mg/kg/injection, schedule: Q01DX009 (ip), vehicle: saline 91 % of control | dose: 6.25 mg/kg/injection, schedule: Q01DX009 (ip), vehicle: saline 97 % of control | dose: 12.5 mg/kg/injection, schedule: Q01DX001 (ip), vehicle: saline 100 % of control | dose: 25.0 mg/kg/injection, schedule: Q01DX001 (ip), vehicle: saline 94 % of control

C#CCC1(OC(N)=O)CCCCC1
inactive: [1] 96 % of control | dose: 25.0 mg/kg/injection, schedule: Q04DX003 (ip), vehicle: Klucel (hydroxypropylcellulose) (HPC) 102 % of control | [2] 96 % of control | dose: 50.0 mg/kg/injection, schedule: Q04DX003 (ip), vehicle: Klucel (hydroxypropylcellulose) (HPC) 110 % of control | [3] 110 % of control | [4] 100 % of control | [5] 87 % of control | [6] 107 % of control | [7] 94 % of control

O=C1NC(=O)c2ccccc21
inactive: [8] 94 % of control | [9] 99 % of control | [10] 94 % of control and 96 % of control | [11] 95 % of control | dose: 200.0 mg/kg/injection, schedule: Q01DX009 (ip), vehicle: saline 95 % of control and 108 % of control | [12] 98 % of control | dose: 400.0 mg/kg/injection, schedule: Q01DX009 (ip), vehicle: saline 95 % of control and 96 % of control | [13] 106 % of control

NC(=O)c1cc(Cl)c(OCc2ccccc2)c(Cl)c1
inactive: dose: 75.0 mg/kg/injection, schedule: Q01DX001 (ip), vehicle: saline with Tween-80 98 % of control | dose: 150.0 mg/kg/injection, schedule: Q01DX001 (ip), vehicle: saline with Tween-80 103 % of control | dose: 300.0 mg/kg/injection, schedule: Q01DX001 (ip), vehicle: saline with Tween-80 98 % of control

CCC(CO)NC(=O)C(O)C(O)C(O)C(O)CO (configuration not stated)
inactive: [11] 94 % of control | [12] 97 % of control | [13] 94 % of control

CCOc1ccc(NC(=S)NC(=O)C(C)Oc2ccccc2)cc1 (configuration not stated)
inactive: [14] 102 % of control | dose: 800.0 mg/kg/injection, schedule: Q04DX002 (ip), vehicle: saline with Tween-80 96 % of control and 101 % of control

CCOP(=S)(N/N=C\C(C)(C)C1CCCCC1)OCC
inactive: [15] 94 % of control | [16] 91 % of control | [17] 98 % of control

Cc1ccc(NC(=O)N(CCO)C2CCCCC2)c([N+](=O)[O-])c1
inactive: [4] 87 % of control | [6] 98 % of control | [7] 96 % of control

CCC(C)n1c(C)cc(=O)n1C(C)CC (configuration not stated)
inactive: dose: 15.0 mg/kg/injection, schedule: Q01DX001 (ip), vehicle: saline 101 % of control | dose: 30.0 mg/kg/injection, schedule: Q01DX001 (ip), vehicle: saline 97 % of control | dose: 60.0 mg/kg/injection, schedule: Q01DX001 (ip), vehicle: saline 101 % of control

CC(=O)[O][Pb]([O]C(C)=O)([c]1ccccc1)[c]1ccccc1
inactive: [18] 98 % of control | dose: 100.0 mg/kg/injection, schedule: Q04DX002 (ip), vehicle: saline with Tween-80 102 % of control | [19] 102 % of control | dose: 200.0 mg/kg/injection, schedule: Q04DX002 (ip), vehicle: saline with Tween-80 102 % of control | [20] 105 % of control

NC(c1ccccc1)C(O)c1ccccc1 (configuration not stated)
inactive: dose: 37.5 mg/kg/injection, schedule: Q04DX003 (ip), vehicle: saline 98 % of control | dose: 75.0 mg/kg/injection, schedule: Q04DX003 (ip), vehicle: saline 92 % of control | dose: 150.0 mg/kg/injection, schedule: Q04DX003 (ip), vehicle: saline 101 % of control

CCN(CC)c1cccc(OC(=O)Nc2ccc(SC)cc2)c1
inactive: [21] 95 % of control | [22] 103 % of control | dose: 400.0 mg/kg/injection, schedule: Q01DX009 (ip), vehicle: saline with Tween-80 97 % of control

CC(=O)OC1C2CC3C(C2)C31 (configuration not stated)
inactive: [14] 105 % of control | [21] 97 % of control | [22] 94 % of control

CCOC(=O)CNC(=O)OCCSc1ccc(C)cc1
inactive: [21] 97 % of control | [22] 93 % of control

[N-]=[N+]=CS(=O)(=O)c1ccccc1-c1ccccc1
inactive: [4] 104 % of control | [6] 103 % of control | [7] 95 % of control

CN1CCc2ccc(Oc3cccc4c3CCN(C)C4)cc2C1
inactive: dose: 75.0 mg/kg/injection, schedule: Q01DX001 (ip), vehicle: other 112 % of control | dose: 150.0 mg/kg/injection, schedule: Q01DX001 (ip), vehicle: other 92 % of control

CCOC(=O)C(C(=O)OCC)c1c[n+]([O-])c2ccccc2c1[N+](=O)[O-]
inactive: [15] 93 % of control | [16] 98 % of control | [17] 98 % of control

COC(=O)C1(O)c2ccccc2-c2ccccc21
inactive: [15] 103 % of control | [16] 111 % of control | [17] 97 % of control

CCC(C)C(NC(=O)C(CC(C)C)N(C)C)C(=O)N1CCC2Oc3ccc(cc3)/C=C\NC(=O)C(Cc3ccccc3)NC(=O)C21 (configuration not stated)
inactive: [4] 96 % of control | [6] 108 % of control | [7] 94 % of control

C[n+]1ccn(CC(=O)c2ccccc2)c1
inactive: [8] 98 % of control | [9] 112 % of control | [10] 93 % of control

C=CCNC(=S)NCc1ccc(Cl)cc1
inactive: [1] 100 % of control | [2] 102 % of control | [3] 94 % of control | [18] 111 % of control

C=C(CC)C(=O)OCC
inactive: [11] 105 % of control | [12] 94 % of control | [13] 96 % of control

Cc1cccc(NC(=O)NCCCl)c1
inactive: dose: 100.0 mg/kg/injection, schedule: Q01DX001 (ip), vehicle: other 97 % of control | [3] 95 % of control | [18] 102 % of control | dose: 200.0 mg/kg/injection, schedule: Q01DX001 (ip), vehicle: other 105 % of control | [5] 92 % of control | [19] 113 % of control | dose: 400.0 mg/kg/injection, schedule: Q01DX001 (ip), vehicle: other 97 % of control | [23] 92 % of control | [20] 102 % of control

CNNc1cc(CO)cnc1SC
inactive: dose: 100.0 mg/kg/injection, schedule: Q01DX001 (ip), vehicle: saline 105 % of control | dose: 200.0 mg/kg/injection, schedule: Q01DX001 (ip), vehicle: saline 104 % of control

Cc1cc(C)cc(OCC2CNC(=O)O2)c1 (configuration not stated)
inactive: [1] 101 % of control | dose: 25.0 mg/kg/injection, schedule: Q04DX003 (ip), vehicle: saline 90 % of control | [2] 114 % of control | dose: 50.0 mg/kg/injection, schedule: Q04DX003 (ip), vehicle: saline 92 % of control | [3] 100 % of control | [5] 100 % of control | [12] 90 % of control | [23] 103 % of control | [13] 113 % of control

N/C(=N/N=C/c1ccccc1)N/N=C\c1ccccc1
inactive: dose: 15.0 mg/kg/injection, schedule: Q01DX Z (oral), vehicle: saline 95 % of control | dose: 30.0 mg/kg/injection, schedule: Q01DX Z (oral), vehicle: saline 95 % of control | dose: 60.0 mg/kg/injection, schedule: Q01DX Z (oral), vehicle: saline 91 % of control | dose: 120.0 mg/kg/injection, schedule: Q01DX Z (oral), vehicle: saline 95 % of control

— PubChem BioAssay AID248 (DTP/NCI, 2004)
